Target: GCN2 (Homo sapiens (Human), UniProt Q9P2K8)
Assay: GCN2 Biochemical Assay (TR-FRET, GFP-eIF2S1 substrate phosphorylation)
Conditions: read-out: IC50 (GCN2 Inhibitory Activity)
Summary of the method: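 TR-FRET readout (Ex 340, Em 490/520 nm) after 2–3 h with Tb-labelled phospho-eIF2S1 antibody in stop mix, following a 70 min room-temperature kinase step. Reaction: in-house GCN2, GFP-eIF2S1, ATP, tRNA in Tris pH 7.5 (2× stocks 1.6 nM, 50 nM, 0.2 mM); compounds tested at 10 concentrations, with a phospho-substrate artifact counter-plate.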

GCN2, sequence (Q9P2K8 whole entry): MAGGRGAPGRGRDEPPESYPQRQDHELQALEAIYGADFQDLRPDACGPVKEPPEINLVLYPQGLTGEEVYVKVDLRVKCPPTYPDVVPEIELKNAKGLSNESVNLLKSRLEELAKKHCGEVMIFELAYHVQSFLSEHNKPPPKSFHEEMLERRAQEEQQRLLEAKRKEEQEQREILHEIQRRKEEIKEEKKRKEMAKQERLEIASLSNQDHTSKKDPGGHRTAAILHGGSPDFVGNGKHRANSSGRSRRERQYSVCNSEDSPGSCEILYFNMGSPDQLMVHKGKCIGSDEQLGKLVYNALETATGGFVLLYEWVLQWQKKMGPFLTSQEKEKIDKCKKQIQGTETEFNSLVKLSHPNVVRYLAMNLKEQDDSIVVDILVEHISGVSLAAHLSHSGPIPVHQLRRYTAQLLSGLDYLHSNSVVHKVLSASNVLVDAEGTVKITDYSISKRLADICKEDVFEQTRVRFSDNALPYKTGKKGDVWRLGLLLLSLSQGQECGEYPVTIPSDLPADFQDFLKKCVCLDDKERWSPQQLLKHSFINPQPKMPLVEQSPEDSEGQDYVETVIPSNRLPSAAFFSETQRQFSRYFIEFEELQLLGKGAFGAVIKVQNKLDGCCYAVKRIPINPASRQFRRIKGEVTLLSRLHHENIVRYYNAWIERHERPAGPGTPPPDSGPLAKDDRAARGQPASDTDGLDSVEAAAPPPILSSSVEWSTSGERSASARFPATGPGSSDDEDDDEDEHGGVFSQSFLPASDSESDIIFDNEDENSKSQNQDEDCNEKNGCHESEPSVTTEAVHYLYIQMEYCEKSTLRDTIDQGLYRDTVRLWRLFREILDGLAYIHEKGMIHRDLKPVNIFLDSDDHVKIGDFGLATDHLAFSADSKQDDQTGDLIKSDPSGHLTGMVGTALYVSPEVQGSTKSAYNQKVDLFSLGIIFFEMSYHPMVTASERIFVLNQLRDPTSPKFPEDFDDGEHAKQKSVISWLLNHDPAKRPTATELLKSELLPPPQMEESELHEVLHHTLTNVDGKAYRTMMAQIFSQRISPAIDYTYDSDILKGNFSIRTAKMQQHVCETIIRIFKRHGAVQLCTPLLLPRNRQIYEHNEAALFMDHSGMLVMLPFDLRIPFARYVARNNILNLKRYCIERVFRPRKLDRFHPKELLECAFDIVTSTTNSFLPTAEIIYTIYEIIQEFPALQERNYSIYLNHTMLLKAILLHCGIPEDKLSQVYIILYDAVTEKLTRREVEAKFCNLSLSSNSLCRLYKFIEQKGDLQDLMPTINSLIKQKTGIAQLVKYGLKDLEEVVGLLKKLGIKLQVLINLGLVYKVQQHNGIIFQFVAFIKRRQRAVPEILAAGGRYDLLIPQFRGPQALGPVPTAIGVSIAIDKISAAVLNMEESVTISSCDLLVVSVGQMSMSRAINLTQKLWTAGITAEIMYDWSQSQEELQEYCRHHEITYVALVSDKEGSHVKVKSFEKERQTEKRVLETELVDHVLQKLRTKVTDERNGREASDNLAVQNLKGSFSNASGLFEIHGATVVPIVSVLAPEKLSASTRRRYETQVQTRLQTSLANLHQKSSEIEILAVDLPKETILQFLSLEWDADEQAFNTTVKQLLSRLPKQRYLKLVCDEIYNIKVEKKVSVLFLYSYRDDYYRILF

## Cc1cnc(Nc2cc(C)n(C)n2)nc1-c1c[nH]c2c(N3Cc4cccc(-c5cn[nH]c5)c4C3=O)cccc12 [Example 386, 2-(3-(2-((1,5-dimethyl-1H-pyrazol-3-yl)amino)-5-methylpyrimidin-4-yl)-1H-indol-7-yl)-7-(1H-pyrazol-4-yl)isoindolin-1-one]
  IC50: 10 to 100 nM

## Cc1cnc(Nc2cc(C)n(C)n2)nc1-c1c[nH]c2c(N3Cc4c(cccc4-c4ccncc4)C3=O)cccc12 [Example 387, 2-(3-(2-((1,5-dimethyl-1H-pyrazol-3-yl)amino)-5-methylpyrimidin-4-yl)-1H-indol-7-yl)-4-(pyridin-4-yl)isoindolin-1-one]
  IC50: < 10 nM

## Cc1cnc(Nc2cc(C)n(C)n2)nc1-c1c[nH]c2c(N3Cc4c(cccc4-c4cccnc4)C3=O)cccc12 [Example 388, 2-(3-(2-((1,5-dimethyl-1H-pyrazol-3-yl)amino)-5-methylpyrimidin-4-yl)-1H-indol-7-yl)-4-(pyridin-3-yl)isoindolin-1-one]
  IC50: < 10 nM

## Cc1cnc(Nc2cc(C)n(C)n2)nc1-c1c[nH]c2c(N3Cc4c(cccc4-c4cnn(C)c4)C3=O)cccc12 [Example 389, 2-(3-(2-((1,5-dimethyl-1H-pyrazol-3-yl)amino)-5-methylpyrimidin-4-yl)-1H-indol-7-yl)-4-(i-methyl-1H-pyrazol-4-yl)isoindolin-1-one]
  IC50: < 10 nM

## Cc1cnc(Nc2cc(C)n(C)n2)nc1-c1c[nH]c2c(N3Cc4c(cccc4-c4cn[nH]c4)C3=O)cccc12 [Example 390, 2-(3-(2-((1,5-dimethyl-1H-pyrazol-3-yl)amino)-5-methylpyrimidin-4-yl)-1H-indol-7-yl)-4-(1H-pyrazol-4-yl)isoindolin-1-one]
  IC50: < 10 nM

## Cc1cnc(Nc2cc(C)n(C)n2)nc1-c1c[nH]c2c(N3Cc4c(cccc4C4=CCCCC4)C3=O)cccc12 [Example 391, 4-(cyclohex-1-en-1-yl)-2-(3-(2-((1,5-dimethyl-1H-pyrazol-3-yl)amino)-5-methylpyrimidin-4-yl)-1H-indol-7-yl)isoindolin-t-one]
  IC50: 10 to 100 nM

## Cc1cnc(Nc2cc(C)n(C)n2)nc1-c1c[nH]c2c(N3Cc4c(cccc4C4=CCOCC4)C3=O)cccc12 [Example 392, 4-(3,6-dihydro-2H-pyran-4-yl)-2-(3-(2-((1,5-dimethyl-1H-pyrazol-3-yl)amino)-5-methylpyrimidin-4-yl)-1H-indol-7-yl)isoindolin-1-one]
  IC50: < 10 nM

## Cc1cnc(Nc2cc(C)n(C)n2)nc1-c1c[nH]c2c(N3Cc4c(cccc4-c4ccoc4)C3=O)cccc12 [Example 393, 2-(3-(2-((1,5-dimethyl-1H-pyrazol-3-yl)amino)-5-methylpyrimidin-4-yl)-1H-indol-7-yl)-4-(furan-3-yl)isoindolin-1-one]
  IC50: < 10 nM

## Cc1cnc(Nc2cc(C)n(C)n2)nc1-c1c[nH]c2c(N3Cc4c(cccc4C4=CCNCC4)C3=O)cccc12 [Example 394, 2-(3-(2-((1,5-dimethyl-1H-pyrazol-3-yl)amino)-5-methylpyrimidin-4-yl)-1H-indol-7-yl)-4-(1,2,3,6-tetrahydropyridin-4-yl)isoindolin-1-one]
  IC50: < 10 nM

## Cc1cnc(Nc2cc(C)n(C)n2)nc1-c1c[nH]c2c(N3Cc4c(cccc4-c4ccc(OC(F)(F)F)cc4)C3=O)cccc12 [Example 395, 2-(3-(2-((1,5-dimethyl-1H-pyrazol-3-yl)amino)-5-methylpyrimidin-4-yl)-1H-indol-7-yl)-4-(4-(trifluoromethoxy)phenyl)isoindolin-1-one]
  IC50: 10 to 100 nM

## Cc1cnc(Nc2cc(C)n(C)n2)nc1-c1c[nH]c2c(N3Cc4c(cccc4-c4ccc(N)cc4)C3=O)cccc12 [Example 396, 4-(4-aminophenyl)-2-(3-(2-((1,5-dimethyl-1H-pyrazol-3-yl)amino)-5-methylpyrimidin-4-yl)-1H-indol-7-yl)isoindolin-1-one]
  IC50: < 10 nM

## Cc1cnc(Nc2cc(C)n(C)n2)nc1-c1c[nH]c2c(N3Cc4c(cccc4C4=CCN(C(=O)OC(C)(C)C)CC4)C3=O)cccc12 [Example 397, tert-butyl 4-(2-(3-(2-((1,5-dimethyl-1H-pyrazol-3-yl)amino)-5-methylpyrimidin-4-yl)-1H-indol-7-yl)-1-oxoisoindolin-4-yl)-3,6-dihydropyridine-1(2H)-carboxylat]
  IC50: < 10 nM

## Cc1cnc(Nc2cc(C)n(C)n2)nc1-c1c[nH]c2c(N3Cc4c(cccc4-c4ccc(NC(=O)OC(C)(C)C)cc4)C3=O)cccc12 [Example 398, tert-butyl (4-(2-(3-(2-((1,5-dimethyl-1H-pyrazol-3-yl)amino)-5-methylpyrimidin-4-yl)-1H-indol-7-yl)-1-oxoisoindolin-4-yl)phenyl)carbamate]
  IC50: 10 to 100 nM

## Cc1cnc(Nc2cc(C)n(C)n2)nc1-c1c[nH]c2c(N3Cc4c(cccc4-c4ccnc(N)c4)C3=O)cccc12 [Example 399, 4-(2-aminopyridin-4-yl)-2-(3-(2-((1,5-dimethyl-1H-pyrazol-3-yl)amino)-5-methylpyrimidin-4-yl)-1H-indol-7-yl)isoindolin-1-one]
  IC50: < 10 nM

## Cc1cnc(Nc2cc(C)n(C)n2)nc1-c1c[nH]c2c(N3Cc4c(cccc4-c4ccncc4F)C3=O)cccc12 [Example 400, 2-(3-(2-((1,5-dimethyl-1H-pyrazol-3-yl)amino)-5-methylpyrimidin-4-yl)-1H-indol-7-yl)-4-(3-fluoropyridin-4-yl)isoindolin-1-one]
  IC50: < 10 nM

## Cc1cnc(Nc2cc(C)n(C)n2)nc1-c1c[nH]c2c(N3Cc4c(cccc4-c4ccc(O)nc4)C3=O)cccc12 [Example 401, 2-(3-(2-((1,5-dimethyl-1H-pyrazol-3-yl)amino)-5-methylpyrimidin-4-yl)-1H-indol-7-yl)-4-(6-hydroxypyridin-3-yl)isoindolin-1-one]
  IC50: < 10 nM

## Cc1cnc(Nc2cc(C)n(C)n2)nc1-c1c[nH]c2c(N3Cc4c(cccc4-c4ccnc(Cl)c4)C3=O)cccc12 [Example 402, 4-(2-chloropyridin-4-yl)-2-(3-(2-((1,5-dimethyl-1H-pyrazol-3-yl)amino)-5-methylpyrimidin-4-yl)-1H-indol-7-yl)isoindolin-1-one]
  IC50: 10 to 100 nM

## COc1cc(-c2cccc3c2CN(c2cccc4c(-c5nc(Nc6cc(C)n(C)n6)ncc5C)c[nH]c24)C3=O)c(F)cn1 [Example 403, 2-(3-(2-((1,5-dimethyl-1H-pyrazol-3-yl)amino)-5-methylpyrimidin-4-yl)-1H-indol-7-yl)-4-(5-fluoro-2-methoxypyridin-4-yl)isoindolin-1-one]
  IC50: 10 to 100 nM

## Cc1cnc(Nc2cc(C)n(C)n2)nc1-c1c[nH]c2c(N3Cc4c(cccc4-c4ccnc(F)c4)C3=O)cccc12 [Example 404, 2-(3-(2-((1,5-dimethyl-1H-pyrazol-3-yl)amino)-5-methylpyrimidin-4-yl)-1H-indol-7-yl)-4-(2-fluoropyridin-4-yl)isoindolin-1-one]
  IC50: < 10 nM

## Cc1cnc(Nc2cc(C)n(C)n2)nc1-c1c[nH]c2c(N3Cc4c(cccc4-c4ccc(Cl)nc4)C3=O)cccc12 [Example 405, 4-(6-chloropyridin-3-yl)-2-(3-(2-((1,5-dimethyl-1H-pyrazol-3-yl)amino)-5-methylpyrimidin-4-yl)-1H-indol-7-yl)isoindolin-1-one]
  IC50: 10 to 100 nM

## COc1ccc(-c2cccc3c2CN(c2cccc4c(-c5nc(Nc6cc(C)n(C)n6)ncc5C)c[nH]c24)C3=O)cn1 [Example 406, 2-(3-(2-((1,5-dimethyl-1H-pyrazol-3-yl)amino)-5-methylpyrimidin-4-yl)-1H-indol-7-yl)-4-(6-methoxypyridin-3-yl)isoindolin-1-one]
  IC50: 10 to 100 nM

## Cc1cc(-c2cccc3c2CN(c2cccc4c(-c5nc(Nc6cc(C)n(C)n6)ncc5C)c[nH]c24)C3=O)cnc1F [Example 407, 2-(3-(2-((1,5-dimethyl-1H-pyrazol-3-yl)amino)-5-methylpyrimidin-4-yl)-1H-indol-7-yl)-4-(6-fluoro-5-methylpyridin-3-yl)isoindolin-1-one]
  IC50: 10 to 100 nM

## Cc1cnc(Nc2cc(C)n(C)n2)nc1-c1c[nH]c2c(N3Cc4c(cccc4-c4ccnc(N5CCNCC5)c4)C3=O)cccc12 [Example 408, 2-(3-(2-((1,5-dimethyl-1H-pyrazol-3-yl)amino)-5-methylpyrimidin-4-yl)-1H-indol-7-yl)-4-(2-(piperazin-1-yl)pyridin-4-yl)isoindolin-1-one]
  IC50: < 10 nM

## Cc1cnc(Nc2cc(C)n(C)n2)nc1-c1c[nH]c2c(N3Cc4c(cccc4-c4ccc(S(=O)(=O)N5CCCC5)cc4)C3=O)cccc12 [Example 409, 2-(3-(2-((1,5-dimethyl-1H-pyrazol-3-yl)amino)-5-methylpyrimidin-4-yl)-1H-indol-7-yl)-4-(4-(pyrrolidin-1-ylsulfonyl)phenyl)isoindolin-1-one]
  IC50: 10 to 100 nM

## Cc1cnc(Nc2cc(C)n(C)n2)nc1-c1c[nH]c2c(N3Cc4c(/C=C/c5cccc(F)c5)cccc4C3=O)cccc12 [Example 410, (E)-2-(3-(2-((1,5-dimethyl-1H-pyrazol-3-yl)amino)-5-methylpyrimidin-4-yl)-1H-indol-7-yl)-4-(3-fluorostyryl)isoindolin-1-one]
  IC50: 100 to 1000 nM

## Cc1cnc(Nc2cc(C)n(C)n2)nc1-c1c[nH]c2c(N3Cc4c(cccc4-c4ccnc5[nH]ccc45)C3=O)cccc12 [Example 411, 2-(3-(2-((1,5-dimethyl-1H-pyrazol-3-yl)amino)-5-methylpyrimidin-4-yl)-1H-indol-7-yl)-4-(1H-pyrrolo[2,3-b]pyridin-4-yl)isoindolin-1-one]
  IC50: < 10 nM

## Cc1cnc(Nc2cc(C)n(C)n2)nc1-c1c[nH]c2c(N3Cc4c(cccc4-c4ccc(C(=O)N5CCC(=O)CC5)cc4)C3=O)cccc12 [Example 412, 2-(3-(2-((1,5-dimethyl-1H-pyrazol-3-yl)amino)-5-methylpyrimidin-4-yl)-1H-indol-7-yl)-4-(4-(4-oxopiperidine-1-carbonyl)phenyl)isoindolin-1-one]
  IC50: < 10 nM

## Cc1cnc(Nc2cc(C)n(C)n2)nc1-c1c[nH]c2c(N3Cc4c(cccc4C4=CCSCC4)C3=O)cccc12 [Example 413, 4-(3,6-dihydro-2H-thiopyran-4-yl)-2-(3-(2-((1,5-dimethyl-1H-pyrazol-3-yl)amino)-5-methylpyrimidin-4-yl)-1H-indol-7-yl)isoindolin-1-one]
  IC50: < 10 nM

Reference: patent US20240025884A1 (Dong-A ST Co., Ltd., priority 2022, published 2024)
